The values that follow come from patent US4719223A, “Imidazolethiol dopamine-beta-hydroxylase inhibitors” (SmithKline Beckman Corporation, priority 1985, dated 1988).

The target in data set [1] is T1, dopamine-β-hydroxylase (DBH) (Bos taurus, UniProt P15101).
T1 sequence (P15101 1-610): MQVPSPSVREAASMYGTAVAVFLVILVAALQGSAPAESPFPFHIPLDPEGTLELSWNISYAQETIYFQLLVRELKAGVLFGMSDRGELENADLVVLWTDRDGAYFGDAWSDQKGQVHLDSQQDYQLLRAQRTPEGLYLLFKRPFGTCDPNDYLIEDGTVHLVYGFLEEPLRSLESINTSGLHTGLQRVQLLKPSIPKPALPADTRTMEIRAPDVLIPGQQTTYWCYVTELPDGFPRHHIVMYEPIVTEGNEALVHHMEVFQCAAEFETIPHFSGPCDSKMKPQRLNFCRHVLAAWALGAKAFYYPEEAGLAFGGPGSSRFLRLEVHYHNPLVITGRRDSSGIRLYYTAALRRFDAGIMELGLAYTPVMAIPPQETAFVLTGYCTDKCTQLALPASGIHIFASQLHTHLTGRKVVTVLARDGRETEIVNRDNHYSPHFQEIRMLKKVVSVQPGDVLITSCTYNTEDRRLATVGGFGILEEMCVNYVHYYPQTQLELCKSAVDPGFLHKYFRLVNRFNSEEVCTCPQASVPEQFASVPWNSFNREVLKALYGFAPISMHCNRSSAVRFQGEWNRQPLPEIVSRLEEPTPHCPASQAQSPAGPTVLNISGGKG
As to the kind of experiment: in vitro DBH inhibition (conversion of tyramine to octopamine, absorbance at 330 nm). It is filed as biochemical. Conditions: for DBH inhibiting activity: phenolic hydroxy group replaced by isostere. The method, then: Because the compounds of Formula I inhibit DBH activity, they have therapeutic value as diuretic, natriuretic, cardiotonic, antihypertensive and vasodilator agents, as well as antiulcerogenic and anti-Parkinsonian agents. Listed in Table I are the compounds of the invention that were tested for in vitro DBH inhibition by a standard procedure for assaying conversion of tyramine to octopamine in the presence of DBH. J. J. Pisano, et al., Biochim. Biophys. Acta; 43, […] (1960). Octopamine was assayed following sodium periodate oxidation to p-hydroxybenzaldehyde by measuring spectrophotometric absorbance at 330 nm. In Table I, inhibition is given in molar concentration of compound at which DBH activity was halved (IC50). Melting points (mp) are given in °C.
This testing was performed using compounds prepared by substituting various phenolic isosteres for the phenolic hydroxy group of another DBH inhibitor, 1-(3',5'-difluoro-4'-hydroxybenzyl)imidazole-2-thiol (U.S. patent application Ser. No. 590,665, filed Mar. 19, 1984).

Data set [2] deals with peripheral dopamine (DA) and norepinephrine (NE) levels. As to the kind of experiment: in vivo effect on peripheral dopamine (DA) and norepinephrine (NE) levels. Set-up: species or system spontaneously hypertensive rats. The note with it: 50 mg/kg orally, twice, about 18 h apart, sacrificed about 2 h after second dose; for DA/NE Ratio / DA: p < 0.001; for NE / DA: μg per gram of tissue. The method, then:
One of the compounds of the invention was tested for its effect in vivo on peripheral dopamine (DA) and norepinephrine (NE) levels substantially by the procedure of DaPrada and Zurcher, Life Sciences, 19, 1161, (1976). Groups of five spontaneously hypertensive rats were dosed orally, twice, the second dose approximately 18 hours after the first, and were sacrificed about 2 hours after the second dose.

Data set [3] can be described thus: mean arterial blood pressure in spontaneously hypertensive rats. The note with it: 50 mg/kg intraperitoneally; 15 min. It is filed as in vivo. The method, then: Further, spontaneously hypertensive rats were dosed with a suspension or solution of 1-(4'-amino-3',5'-difluorobenzyl)imidazole-2-thiol at a dose of 50 mg/kg intraperitoneally, and mean arterial blood pressure was monitored for 260 minutes using indwelling cannulae positioned in the tail arteries. Approximate forty percent reductions in blood pressure were observed fifteen minutes following administration of this compound. At 260 minutes after administration of this compound, blood pressure remained reduced by approximately ten percent when compared to vehicle-treated controls.

Data set [4] has as its system DBH. Conditions: cited from earlier work; for DBH inhibition: literature reports; for mode of DBH inhibition: apparent, phenethylamine analogues.
The conditions of data set [5]: Ehrreich et al. 1976; cited from earlier work.
The conditions of data set [6]: Teresawa et al. 1971; cited from earlier work.
The test system of data set [7] is DBH. Conditions: Friedman et al. 1978; significance uncertain; cited from earlier work.
[8] abbreviates: in vitro, tyramine to octopamine, read-out: IC50 (molar concentration of compound at which DBH activity was halved).

Read-outs that look alike come from different tables or passages of the source.

Regarding `Oc1c(F)cc(Cn2cc[nH]c2=S)cc1F` [1-(3',5'-difluoro-4'-hydroxybenzyl)imidazole-2-thiol], the IC50 in data set [1] (comparison compound of U.S. patent application Ser. No. 590,665, read-out: IC50 of comparison DBH inhibitor) was 0.08 µM.
With `Nc1c(Cl)cc(Cn2ccnc2S)cc1Cl` [1-(4'-amino-3',5'-dichlorobenzyl)imidazole-2-thiol], the IC50 in data set [1] (setting [8]) is 3.1 µM.
In the case of `Nc1c(F)cc(Cn2ccnc2S)cc1F` [1-(4'-amino-3',5'-difluorobenzyl)imidazole-2-thiol], in data set [1] (setting [8]), the IC50 is 1.2 µM. Besides, in data set [2], the “DA/NE Ratio” value is 0.151, the NE amounted to 5.53 µg/g and the DA is 0.821 µg/g. Moreover, the “reduction in blood pressure, fifteen minutes after administration” value in data set [3] is given as “forty”.
Consider `O=C(O)c1ccc(CCC(Br)CBr)cn1` (stereo not shown) [5-(3,4-dibromobutyl)picolinic acid], for which the DBH inhibition result with DBH [4] is given as “DBH inhibitors”.
Consider `O=C(O)c1ccc(CCCCCl)cn1` [5-(4-chlorobutyl)picolinic acid], for which the DBH inhibition entry with DBH [4] was “inhibit DBH”.
Regarding `CN(C)C(=S)SCc1ccc(C(=O)O)nc1` [5-(dimethyldithiocarbamoyl)methylpicolinic acid], in the data set with DBH [4], the DBH inhibition entry is given as “DBH inhibitors”.
For the compound `CS(=O)(=O)Cc1c(F)cc(Cn2ccnc2S)cc1F` [--CH2 SO2 CH3], the DBH inhibiting activity entry in data set [1] (in vitro) was “devoid of DBH inhibiting activity”.
`O=CNc1c(F)cc(Cn2ccnc2S)cc1F` [--NHCHO]: the DBH inhibiting activity entry in data set [1] (in vitro) was “devoid of DBH inhibiting activity”.
The same measure, in the same setting: the result for `O=C(Nc1c(F)cc(Cn2ccnc2S)cc1F)C(F)(F)F` [--NHCOCF3] reads “devoid of DBH inhibiting activity”; that for `NS(=O)(=O)Nc1c(F)cc(Cn2ccnc2S)cc1F` [--NHSO2 NH2], “devoid of DBH inhibiting activity”.
Take `NOCc1ccccc1` [Benzyloxyamine, benzyloxyamine]: the “mode of DBH inhibition” value in the data set on DBH [4] is “competitive inhibitors”.
`CCCCc1ccc(C(N)=O)nc1` [Bupicomide, 5-(n-butyl)picolinamine]: the antihypertensive activity result in data set [5] is “antihypertensive activity”. Further, in the data set with DBH [4], the DBH inhibition entry was “DBH inhibitor”.
Take `CCCCc1ccc(C(=O)O)nc1` [Fusaric acid]: in data set [2], the “DA/NE Ratio” value is on record as 0.0937, the NE turned out to be 5.63 µg/g and the DA worked out at 0.529 µg/g. Besides, the hepatotoxicity entry in data set [6] is on record as “hepatotoxic”.
Take `C[C@](N)(Cc1ccc(O)c(O)c1)C(=O)O` [alpha-methyl-DOPA]: the “DBH levels in treated patients” value in the data set on DBH [7] is “lowered DBH levels”.
In the case of `NNCc1ccccc1` [benzylhydrazine], in the data set with DBH [4], the “mode of DBH inhibition” value was “competitive inhibitors”.
With `COC(=O)[C@H]1[C@H]2C[C@@H]3c4[nH]c5cc(OC)ccc5c4CCN3C[C@H]2C[C@@H](OC(=O)c2cc(OC)c(OC)c(OC)c2)[C@@H]1OC` [reserpine], the “DBH levels in treated patients” value in the data set with DBH [7] is reported as “lowered DBH levels”.
For phenylpicolinic acid, the “DBH inhibitory activity relative to fusaric acid” value with DBH [4] (Runti et al. 1980) is “twice the inhibitory activity of fusaric acid”.
